Tested on: panel of nearly 500 cancer cell lines
Experiment: Cancer Cell Line Encyclopedia profiling, 3-day CellTiter-Glo
Assay type: cell-based
Settings: Homo sapiens

For `CN(C)C(=O)c1cc2cnc(Nc3ccc(N4CCNCC4)cn3)nc2n1C1CCCC1` [Ribociclib, 7-cyclopentyl-2-(5-piperazin-1-yl-pyridin-2-ylamino)-7H-pyrrolo[2,3-d]pyrimidine-6-carboxylic acid dimethylamide], the IC50 (NCI-H1666) was > 8 µM, the EC50 (NCI-H1693) was 0.351 µM and the IC50 (NCI-H1693) was > 8 µM. For the same compound, the EC50 (NCI-H1694) was > 8 µM, the IC50 (NCI-H1694) was > 8 µM and the EC50 (NCI-H1703) was 1.11 µM. For the same compound, the IC50 (NCI-H1703) was > 8 µM, the EC50 (NCI-H1792) was > 8 µM and the IC50 (NCI-H1792) was > 8 µM. The EC50 (NCI-H1793) was 0.00418 µM, the IC50 (NCI-H1793) was > 8 µM and the EC50 (NCI-H1944) was 2.5 µM. The IC50 (NCI-H1944) was > 8 µM, the EC50 (NCI-H1975) was 1.05 µM and the IC50 (NCI-H1975) was > 8 µM. The EC50 (NCI-H2009) was > 8 µM, the IC50 (NCI-H2009) was > 8 µM and the EC50 (NCI-H2030) was 1.29 µM. For the same compound, the IC50 (NCI-H2030) was > 8 µM, the EC50 (NCI-H2052) was 0.0207 µM and the IC50 (NCI-H2052) was > 8 µM. The EC50 (NCI-H2087) was 0.338 µM, the IC50 (NCI-H2087) was > 8 µM and the EC50 (NCI-H2122) was > 8 µM. For the same compound, the IC50 (NCI-H2122) was 3.73 µM, the EC50 (NCI-H2170) was > 8 µM and the IC50 (NCI-H2170) was > 8 µM. For the same compound, the EC50 (NCI-H2228) was > 8 µM, the IC50 (NCI-H2228) was > 8 µM and the EC50 (NCI-H2286) was 0.506 µM. The IC50 (NCI-H2286) was > 8 µM, the EC50 (NCI-H2444) was > 8 µM and the IC50 (NCI-H2444) was > 8 µM. The EC50 (NCI-H2452) was 0.3 µM, the IC50 (NCI-H2452) was > 8 µM and the EC50 (NCI-H3255) was > 8 µM. For the same compound, the IC50 (NCI-H3255) was > 8 µM, the EC50 (NCI-N87) was > 8 µM and the IC50 (NCI-N87) was > 8 µM. The EC50 (NUGC-3) was > 8 µM, the IC50 (NUGC-3) was > 8 µM and the EC50 (NUGC-4) was 0.212 µM. For the same compound, the IC50 (NUGC-4) was 1.07 µM, the EC50 (OC-314) was > 8 µM and the IC50 (OC-314) was > 8 µM. For the same compound, the EC50 (OCI-AML2) was 0.838 µM, the IC50 (OCI-AML2) was 1.16 µM and the EC50 (OCI-AML-5) was 0.187 µM. For the same compound, the IC50 (OCI-AML-5) was > 8 µM, the EC50 (OCI-Ly10) was > 8 µM and the IC50 (OCI-Ly10) was > 8 µM. For the same compound, the EC50 (OE33) was > 8 µM, the IC50 (OE33) was > 8 µM and the EC50 (OV-90) was 0.0694 µM. The IC50 (OV-90) was > 8 µM, the EC50 (OVCAR-3) was > 8 µM and the IC50 (OVCAR-3) was > 8 µM. For the same compound, the EC50 (OVCAR-4) was > 8 µM, the IC50 (OVCAR-4) was > 8 µM and the EC50 (OVCAR-8) was > 8 µM. The IC50 (OVCAR-8) was > 8 µM, the EC50 (OVSAHO) was > 8 µM and the IC50 (OVSAHO) was > 8 µM. The EC50 (P3HR-1) was > 8 µM, the IC50 (P3HR-1) was > 8 µM and the EC50 (P12-Ichikawa) was 0.797 µM. For the same compound, the IC50 (P12-Ichikawa) was 3.74 µM, the EC50 (P31-FUJ) was > 8 µM and the IC50 (P31-FUJ) was > 8 µM. For the same compound, the EC50 (PANC-03-27) was > 8 µM, the IC50 (PANC-03-27) was > 8 µM and the EC50 (PC-14) was 4.03 µM. For the same compound, the IC50 (PC-14) was > 8 µM, the EC50 (PLC-PRF-5) was > 8 µM and the IC50 (PLC-PRF-5) was > 8 µM. For the same compound, the EC50 (PSN1) was 2.03 µM, the IC50 (PSN1) was > 8 µM and the EC50 (Panc 02.03) was > 8 µM. For the same compound, the IC50 (Panc 02.03) was > 8 µM, the EC50 (Panc 04.03) was > 8 µM and the IC50 (Panc 04.03) was > 8 µM. The EC50 (Panc1005) was > 8 µM, the IC50 (Panc1005) was > 8 µM and the EC50 (Pfeiffer) was > 8 µM. For the same compound, the IC50 (Pfeiffer) was > 8 µM, the EC50 (RL95-2) was 3.35 µM and the IC50 (RL95-2) was > 8 µM. It also gave an EC50 (RPMI 8402) of 0.951 µM, an IC50 (RPMI 8402) of 1.54 µM and an EC50 (RPMI-7951) of 0.807 µM. For the same compound, the IC50 (RPMI-7951) was > 8 µM, the EC50 (RT-112) was 0.545 µM and the IC50 (RT-112) was > 8 µM. The EC50 (RVH-421) was > 8 µM, the IC50 (RVH-421) was > 8 µM and the EC50 (Raji) was > 8 µM. The IC50 (Raji) was > 8 µM, the EC50 (SAOS-2) was > 8 µM and the IC50 (SAOS-2) was > 8 µM. For the same compound, the EC50 (SBC-5) was 2.3 µM, the IC50 (SBC-5) was > 8 µM and the EC50 (SCC-9) was 0.00254 µM. The IC50 (SCC-9) was > 8 µM, the EC50 (SCaBER) was 1.95 µM and the IC50 (SCaBER) was > 8 µM. For the same compound, the EC50 (SF-126) was > 8 µM, the IC50 (SF-126) was > 8 µM and the EC50 (SF-295) was 0.323 µM. The IC50 (SF-295) was > 8 µM, the EC50 (SHP77) was > 8 µM and the IC50 (SHP77) was > 8 µM. For the same compound, the EC50 (SIG-M5) was 0.0796 µM, the IC50 (SIG-M5) was 0.22 µM and the EC50 (SJRH30) was > 8 µM. For the same compound, the IC50 (SJRH30) was > 8 µM, the EC50 (SJSA-1) was 1.18 µM and the IC50 (SJSA-1) was > 8 µM. For the same compound, the EC50 (SK-BR-3) was > 8 µM, the IC50 (SK-BR-3) was > 8 µM and the EC50 (SK-CO-1) was 2.76 µM. The IC50 (SK-CO-1) was > 8 µM, the EC50 (SK-ES1) was 0.0436 µM and the IC50 (SK-ES1) was > 8 µM. For the same compound, the EC50 (SK-HEP1) was 0.373 µM, the IC50 (SK-HEP1) was > 8 µM and the EC50 (SK-LMS-1) was 1.26 µM. For the same compound, the IC50 (SK-LMS-1) was > 8 µM, the EC50 (SK-LU-1) was 0.682 µM and the IC50 (SK-LU-1) was > 8 µM. The EC50 (SK-MEL-2) was > 8 µM, the IC50 (SK-MEL-2) was > 8 µM and the IC50 (SK-MEL-5) was > 8 µM. For the same compound, the EC50 (SK-MEL-24) was > 8 µM, the IC50 (SK-MEL-24) was > 8 µM and the EC50 (SK-MEL-30) was > 8 µM. The IC50 (SK-MEL-30) was > 8 µM, the EC50 (SK-MES-1) was 5.26 µM and the IC50 (SK-MES-1) was 5.27 µM. The EC50 (SK-MM-2) was > 8 µM, the IC50 (SK-MM-2) was > 8 µM and the EC50 (SK-N-AS) was 0.457 µM. For the same compound, the IC50 (SK-N-AS) was > 8 µM, the EC50 (SK-N-DZ) was 0.88 µM and the IC50 (SK-N-DZ) was 3.44 µM. For the same compound, the EC50 (SK-N-SH) was > 8 µM, the IC50 (SK-N-SH) was 7.74 µM and the EC50 (SK-OV-3) was > 8 µM. The IC50 (SK-OV-3) was > 8 µM, the EC50 (SKNBE2) was 0.328 µM and the IC50 (SKNBE2) was 1.8 µM. For the same compound, the EC50 (SNU1) was 2.4 µM, the IC50 (SNU1) was > 8 µM and the EC50 (SNU-16) was > 8 µM. For the same compound, the IC50 (SNU-16) was > 8 µM, the EC50 (SNU-182) was > 8 µM and the IC50 (SNU-182) was > 8 µM. For the same compound, the EC50 (SNU-387) was > 8 µM, the IC50 (SNU-387) was > 8 µM and the EC50 (SNU-398) was 0.569 µM. For the same compound, the IC50 (SNU-398) was > 8 µM, the EC50 (SNU-423) was > 8 µM and the IC50 (SNU-423) was > 8 µM. For the same compound, the EC50 (SNU-449) was > 8 µM, the IC50 (SNU-449) was > 8 µM and the EC50 (SNU-475) was > 8 µM. For the same compound, the IC50 (SNU-475) was > 8 µM, the EC50 (SNU-C2B) was > 8 µM and the IC50 (SNU-C2B) was > 8 µM. For the same compound, the EC50 (SU-DHL10) was 5.75 µM, the IC50 (SU-DHL10) was 5.75 µM and the EC50 (SU-DHL-4) was 0.329 µM. The EC50 (SU-DHL-6) was 0.742 µM, the IC50 (SU-DHL-6) was > 8 µM and the EC50 (SU-DHL-8) was 1.6 µM. For the same compound, the IC50 (SU-DHL-8) was 3.73 µM, the EC50 (SU.86.86) was > 8 µM and the IC50 (SU.86.86) was > 8 µM. The EC50 (SUP-T1) was > 8 µM, the IC50 (SUP-T1) was > 8 µM and the EC50 (SW48) was 0.0194 µM. The IC50 (SW48) was > 8 µM, the EC50 (SW480) was 6.21 µM and the IC50 (SW480) was > 8 µM. The EC50 (SW780) was 0.159 µM, the IC50 (SW780) was > 8 µM and the EC50 (SW900) was 0.385 µM. The IC50 (SW900) was > 8 µM, the EC50 (SW1088) was > 8 µM and the IC50 (SW1088) was > 8 µM. The EC50 (SW1353) was > 8 µM, the IC50 (SW1353) was > 8 µM and the EC50 (SW1417) was > 8 µM. The IC50 (SW1417) was > 8 µM, the EC50 (SW1573) was 0.324 µM and the IC50 (SW1573) was > 8 µM. For the same compound, the EC50 (SW1990) was 0.593 µM, the IC50 (SW1990) was > 8 µM and the EC50 (SW-403) was > 8 µM. The IC50 (SW-403) was 4.34 µM, the EC50 (SW-620) was 0.45 µM and the IC50 (SW-620) was > 8 µM. For the same compound, the EC50 (T47D) was > 8 µM, the IC50 (T47D) was > 8 µM and the EC50 (T98G) was > 8 µM. The IC50 (T98G) was > 8 µM.

Source: paper PMC6219668 (Oncotarget, 2018)
